SMILES strings stand for the structures. Where a name gives a salt, the structure may show the parent alone.

Test [1] addresses T1, S1P1 (Homo sapiens (Human), UniProt P21453). Briefly: Receptor binding assay, [33P]sphingosine 1-phosphate, membranes from CHO cells expressing S1P1. As to conditions: CHO cell membranes, 25 pM [33P]sphingosine 1-phosphate. How it is done:
Receptor binding assay: Membranes were prepared from CHO cells expressing S1P1 or S1P3 for use in ligand and […] binding studies. Cells were suspended in 50 mM TRIS, pH 7.4, 2 mM EDTA, 250 mM Sucrose (buffer A) and 1× Complete protease inhibitor cocktail (Roche), and disrupted at 4° C. by N2 decompression using a cell disruption bomb (Parr Instrument). Following centrifugation at 1000 RPM for 10 min at 4° C., the supernatant was suspended in buffer A and centrifuged again at 19000 RPM for 60 min at 4° C. The pellet was then suspended in 10 mM HEPES, pH 7.4, 1 mM EDTA, 250 mM Sucrose (Buffer B), and 1× Complete EDTA-free protease inhibitor cocktail and homogenized using a potter. Membranes were flash frozen in liquid N2 and stored at −80° C. [33P]sphingosine 1-phosphate (3000 Ci/mmol; American Radiolabeled Chemicals, Inc.) was added to test compounds in DMSO. Membranes and WGA SPA beads (GE Healthcare) were added to give a final volume of 100 μl in 96-well plates with assay concentrations of 25 pM or 10 pM [33P]sphingosine 1-phosphate (respectively for S1P1 or S1P3), 50 mM HEPES, pH 7.5, 5 mM MgCl2, 100 mM NaCl, 0.4% fatty acid-free BSA, 1-5 μg/well of proteins and 100 μg/well of WGA SPA beads. Binding was performed for 60 min at RT on a shaker and bound radioactivity was measured on a PerkinElmer 1450 MicroBeta counter. Specific binding was calculated by subtracting remaining radioactivity in the presence of 1000-fold excess of unlabeled SIP. Binding data were analyzed using the GraphPad Prism program.

Test [2] deals with T1, S1P1. Nature of the test: 35S-GTPγS binding, membranes from CHO cells expressing S1P1. The test is classed as biochemical. As to conditions: CHO cell membranes. On the technique in general: Binding of GTPγS marks nucleotide exchange on a G protein.

T1 sequence (P21453 whole entry, species assumed): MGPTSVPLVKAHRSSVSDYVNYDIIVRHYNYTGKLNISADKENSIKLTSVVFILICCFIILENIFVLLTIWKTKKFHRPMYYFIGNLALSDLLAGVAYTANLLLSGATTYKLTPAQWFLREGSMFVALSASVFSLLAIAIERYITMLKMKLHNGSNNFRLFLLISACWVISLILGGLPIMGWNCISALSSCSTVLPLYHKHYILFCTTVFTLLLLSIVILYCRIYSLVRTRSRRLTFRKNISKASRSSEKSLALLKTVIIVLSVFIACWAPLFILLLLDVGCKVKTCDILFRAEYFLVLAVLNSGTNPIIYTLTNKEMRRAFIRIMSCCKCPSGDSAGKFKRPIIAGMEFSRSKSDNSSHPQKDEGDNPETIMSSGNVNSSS

`COCc1c(-c2nc(-c3ccc(/C=C/C(=O)O)cc3)no2)cnn1C1CCCCC1` [Example 98, (E)-3-(4-(5-(1-cyclohexyl-5-(methoxymethyl)-1H-pyrazol-4-yl)-1,2,4-oxadiazol-3-yl)phenyl)acrylic acid]: the affinity in test [1], expressed as Ki, was 409 nM.

Take `CCOc1c(-c2nc(-c3cc(F)ccc3F)no2)cnn1-c1ccccc1C` [Example 112, 3-(2,5-difluorophenyl)-5-(5-ethoxy-1-o-tolyl-1H-pyrazol-4-yl)-1,2,4-oxadiazole]: the EC50 in test [2] is 94 nM.

In test [2], `FC(F)(F)c1cccc(-c2noc(-c3cnn(CC4CC4)c3-c3ccncc3)n2)c1` [Example 113, 5-(1-(cyclopropylmethyl)-5-(pyridin-4-yl)-1H-pyrazol-4-yl)-3-(3-(trifluoromethyl)phenyl)-1,2,4-oxadiazole] came in with an EC50 of 24 nM.

In test [2], `COCc1c(-c2nc(-c3ccc(Cn4cccn4)cc3)no2)cnn1C1CCCCC1` [Example 114, 3-(4-((1H-pyrazol-1-yl)methyl)phenyl)-5-(1-cyclohexyl-5-(methoxymethyl)-1H-pyrazol-4-yl)-1,2,4-oxadiazole] had a concentration for a half-maximal effect (EC50) of 94 nM.

As for `COCCc1c(-c2nc(-c3ccc(CO)cc3)no2)cnn1C1CCCCC1` [Example 115, (4-(5-(1-cyclohexyl-5-(2-methoxyethyl)-1H-pyrazol-4-yl)-1,2,4-oxadiazol-3-yl)phenyl)methanol], the concentration giving a half-maximal response (EC50) in test [2] was determined as 134 nM.

`COCc1c(-c2nc(-c3ccc4c(c3)CCNC4)no2)cnn1C1CCCCC1` [Example 116, 5-(1-cyclohexyl-5-(methoxymethyl)-1H-pyrazol-4-yl)-3-(1,2,3,4-tetrahydroisoquinolin-6-yl)-1,2,4-oxadiazole]: the EC50 in test [2] was 86 nM.

Compound `COCc1c(-c2nc(-c3ccc4c(c3)CN(CCC(=O)O)CC4)no2)cnn1C1CCCCC1` [Example 118, 3-(7-(5-(1-cyclohexyl-5-(methoxymethyl)-1H-pyrazol-4-yl)-1,2,4-oxadiazol-3-yl)-3,4-dihydroisoquinolin-2(1H)-yl)propanoic acid] showed an EC50 in test [2] of 398 nM.

For `COCc1c(-c2nc(-c3ccc(Cn4ccnc4)cc3)no2)cnn1C1CCCCC1` [Example 119, 3-(4-((1H-imidazol-1-yl)methyl)phenyl)-5-(1-cyclohexyl-5-(methoxymethyl)-1H-pyrazol-4-yl)-1,2,4-oxadiazole], in test [2], the concentration giving a half-maximal response (EC50) was determined as 66 nM.

Consider `COCc1c(-c2nc(-c3ccc(CNC(C)C)cc3)no2)cnn1C1CCCCC1` [Example 121, N-(4-(5-(1-cyclohexyl-5-(methoxymethyl)-1H-pyrazol-4-yl)-1,2,4-oxadiazol-3-yl)benzyl)propan-2-amine], for which, in test [2], the EC50 worked out at 40 nM.

Turning to `COCc1c(-c2nc(-c3ccc(CNCC(O)CO)cc3)no2)cnn1C1CCCCC1` (stereo not drawn) [Example 122, 3-(4-(5-(1-cyclohexyl-5-(methoxymethyl)-1H-pyrazol-4-yl)-1,2,4-oxadiazol-3-yl)benzylamino)propane-1,2-diol], the response in test [2] was half-maximal at 157 nM (EC50).

The compound `COCc1c(-c2nc(-c3ccc(O)cc3)no2)cnn1C1CCCCC1` [Example 123, 4-(5-(1-cyclohexyl-5-(methoxymethyl)-1H-pyrazol-4-yl)-1,2,4-oxadiazol-3-yl)phenol] gave a concentration giving a half-maximal response (EC50) in test [2] of 82 nM.

Compound `COCc1c(-c2nc(-c3ccc(N)nc3)no2)cnn1C1CCCCC1` [Example 124, 5-(5-(1-cyclohexyl-5-(methoxymethyl)-1H-pyrazol-4-yl)-1,2,4-oxadiazol-3-yl)pyridin-2-amine] came in with a concentration giving a half-maximal response (EC50) in test [2] of 382 nM.

In turn, `COCc1c(-c2nc(-c3cccc(O)c3)no2)cnn1C1CCCCC1` [Example 126, 3-(5-(1-cyclohexyl-5-(methoxymethyl)-1H-pyrazol-4-yl)-1,2,4-oxadiazol-3-yl)phenol] gave a 50% effective concentration (EC50) in test [2] of 168 nM. This EC50 is about 2.3-fold lower than that of the compound before.

In turn, `COCc1c(-c2nc(-c3ccc(CCN(C)C)cc3)no2)cnn1C1CCCCC1` [Example 127, 2-(4-(5-(1-cyclohexyl-5-(methoxymethyl)-1H-pyrazol-4-yl)-1,2,4-oxadiazol-3-yl)phenyl)-N,N-dimethylethanamine] gave an EC50 in test [2] of 172 nM. This EC50 and that of the compound before are within 1.5-fold of each other.

Turning to `COCc1c(-c2nc(-c3ccc(CCNC(C)C)cc3)no2)cnn1C1CCCCC1` [Example 128, N-(4-(5-(1-cyclohexyl-5-(methoxymethyl)-1H-pyrazol-4-yl)-1,2,4-oxadiazol-3-yl)phenethyl)propan-2-amine formate], the EC50 in test [2] is 158 nM.

In test [2], `COCc1c(-c2nc(-c3ccc(CCN4CCC(C(=O)OC)CC4)cc3)no2)cnn1C1CCCCC1` [Example 129, Methyl 1-(4-(5-(1-cyclohexyl-5-(methoxymethyl)-1H-pyrazol-4-yl)-1,2,4-oxadiazol-3-yl)phenethyl)piperidine-4-carboxylate] returned an EC50 of 438 nM. Against the preceding compound, the EC50 is about 2.8-fold higher.

Take `COCc1c(-c2nc(-c3ccc(CCN4CCC(C(=O)O)CC4)cc3)no2)cnn1C1CCCCC1` [Example 130, 1-(4-(5-(1-cyclohexyl-5-(methoxymethyl)-1H-pyrazol-4-yl)-1,2,4-oxadiazol-3-yl)phenethyl)piperidine-4-carboxylic acid]: a half-maximal response in test [2] (EC50) required 36 nM.

For `COCc1c(-c2nc(-c3ccc(OC4CCNC4)cc3)no2)cnn1C1CCCCC1` (stereo not drawn) [Example 131, 5-(1-cyclohexyl-5-(methoxymethyl)-1H-pyrazol-4-yl)-3-(4-(pyrrolidin-3-yloxy)phenyl)-1,2,4-oxadiazole], a half-maximal response in test [2] (EC50) required 181 nM.

In test [2], `O=C(O)C1CCN(Cc2ccc(-c3noc(-c4cnn(C5CCCCC5)c4C4CCOCC4)n3)cc2)CC1` [Example 132, 1-(4-(5-(1-cyclohexyl-5-(tetrahydro-2H-pyran-4-yl)-1H-pyrazol-4-yl)-1,2,4-oxadiazol-3-yl)benzyl)piperidine-4-carboxylic acid] returned an EC50 of 18 nM. This EC50 is about 10-fold lower than that of the compound before.

In turn, `COCc1c(-c2nc(-c3ccc(COCCCC(=O)O)cc3)no2)cnn1C1CCCCC1` [Example 133, 4-(4-(5-(1-cyclohexyl-5-(methoxymethyl)-1H-pyrazol-4-yl)-1,2,4-oxadiazol-3-yl)benzyloxy)butanoic acid] had an inhibitory constant (Ki) in test [1] of 122 nM.

For `COCc1c(-c2nc(-c3ccc(OCCCC(=O)O)cc3)no2)cnn1C1CCCCC1` [Example 134, 4-(4-(5-(1-cyclohexyl-5-(methoxymethyl)-1H-pyrazol-4-yl)-1,2,4-oxadiazol-3-yl)Phenoxy)butanoic acid], the Ki in test [1] is 128 nM.

Take `COCc1c(-c2nc(-c3cccc(COCC(=O)O)c3)no2)cnn1C1CCCCC1` [Example 135, {3-[5-(1-Cyclohexyl-5-methoxymethyl-1H-pyrazol-4-yl)-[1,2,4]oxadiazol-3-yl]-benzyloxy}-acetic acid]: the inhibition constant (Ki) in test [1] came to 41.5 nM.

Compound `c1cnn(Cc2ccc(-c3noc(-c4cnn(C5CCCCC5)c4-c4ccncc4)n3)cc2)c1` [Example 137, 4-{2-Cyclohexyl-4-[3-(4-pyrazol-1-ylmethyl-phenyl)-[1,2,4]oxadiazol-5-yl]-2H-pyrazol-3-yl}-pyridine] returned a Ki in test [1] of 5.16 nM. This Ki is about 8-fold lower than that of the compound before.

On to `COCc1c(-c2nc(-c3cccc(CO)c3)no2)cnn1C1CCCCC1` [Example 138], for which, in test [1], the Ki is 25 nM.

`COCc1c(-c2nc(-c3ccc(CCC(=O)O)cc3)no2)cnn1C1CCCCC1` [Example 139] returned a Ki in test [1] of 393 nM. Against the preceding compound, the Ki is about 16-fold higher.

Compound `COCc1c(-c2nc(-c3cccc(COCCC(=O)O)c3)no2)cnn1C1CCCCC1` [Example 141] showed a Ki in test [1] of 180 nM. This Ki lies about 2.2-fold lower than the previous one.

In turn, `COCc1c(-c2nc(-c3cccc(/C=C/C(=O)O)c3)no2)cnn1C1CCCCC1` [Example 142] displayed a Ki in test [1] of 191 nM.

Compound `COCc1c(-c2nc(-c3cccc(COCC(=O)O)c3)no2)cnn1C1CCCCC1` [Example 143] showed an inhibitory constant (Ki) in test [1] of 41.5 nM.

`COCc1c(-c2nc(-c3cccc(OCCCC(=O)O)c3)no2)cnn1C1CCCCC1` [Example 144] yielded a Ki in test [1] of 31 nM.

For `COCc1c(-c2nc(-c3cccc(CCC(=O)O)c3)no2)cnn1C1CCCCC1` [Example 145], the Ki in test [1] was found to be 116 nM.

`COCc1c(-c2nc(-c3ccc(C(=O)NCCC(=O)O)cc3)no2)cnn1C1CCCCC1` [Example 146] registered a Ki in test [1] of 9.9 nM.

With `COCc1c(-c2nc(-c3cccc(C(=O)NCCC(=O)O)c3)no2)cnn1C1CCCCC1` [Example 147], in test [1], affinity was put at a Ki of 257 nM.

Regarding `c1cnn(Cc2ccc(-c3noc(-c4cnn(C5CCCCC5)c4-c4ccncc4)n3)cc2)c1` [Example 149], the affinity in test [1], expressed as Ki, was 5.2 nM. Against the preceding compound, the Ki is about 49-fold lower.

Turning to `c1cc(-c2c(-c3nc(-c4ccc(Cn5ncnn5)cc4)no3)cnn2C2CCCCC2)ccn1` [Example 150], the Ki in test [1] came to 3.4 nM.

`c1cc(-c2c(-c3nc(-c4ccc(CCn5cncn5)cc4)no3)cnn2C2CCCCC2)ccn1` [Example 151]: affinity in test [1] was put at a Ki of 4.6 nM.

In test [1], `N#CCc1ccc(-c2noc(-c3cnn(C4CCCCC4)c3-c3ccncc3)n2)cc1` [Example 152] had a Ki of 3.3 nM.

Compound `O=C(O)c1cnn(Cc2ccc(-c3noc(-c4cnn(C5CCCCC5)c4-c4ccncc4)n3)cc2)c1` [Example 153] yielded an inhibition constant (Ki) in test [1] of 28 nM.

With `c1cc(-c2c(-c3nc(-c4ccc(Cc5nnn[nH]5)cc4)no3)cnn2C2CCCCC2)ccn1` [Example 154], the Ki in test [1] turned out to be 76 nM.

Compound `c1cc(-c2c(-c3nc(-c4ccc(Cn5cnnn5)cc4)no3)cnn2C2CCCCC2)ccn1` [Example 155] registered a Ki in test [1] of 6 nM.

A word on the Ki: it is a dissociation constant, usually derived from enzyme kinetics or from competition with a known ligand. Low readings indicate tighter binding, high ones weaker binding. As a reminder, the EC50 is the concentration that produces a half-maximal response. Low readings indicate an effect from little substance, high ones a need for much substance.

Source of the values: patent publication US8802663B2, “Pyrazole oxadiazole derivatives as S1P1 agonists” (Merck Serono SA, priority 2009, dated 2014).
